Test results taken from patent publication US20250082760A1 (priority 2020, published 2025).
Counter-ions that a name gives are not always drawn.

What was measured:
reserpine-treated mice = assay: mouse sugar water preference test (reserpine depression model); format: in vivo, Kunming mice; details: after Res 6 mg/kg i.p., CLI 50, Pro 25, A1P1 24 and 25, compound 5 56 mg/kg i.p.; for Sugar water preference (sugar water drinking amount/total drinking amount): Means±SEM, Res + DMSO 0.642 ± 0.036, DMSO 0.901 ± 0.026
Procedure: Experimental drug, clomipramine (CLI), sigma company, batch number: C7291, 10 mg/ml (10% DMSO); reserpine (Res), sigma company, batch number: 83580, 1 mg/ml (10% DMSO);
SPF adult male Kunming mice, 20-30 g, Laboratory Animal Center of Lanzhou University, animal certificate number: SCXK (Gan) 2018-0002, reared in separate cages, temperature 22±1° C., humidity […], 12 h/12 h light and dark cycle controlled by dynamic light (light-on time 8:000 h, light-off time 20:000 h, light intensity≈100 lux), animals could eat and move freely.
(§1) Statistical analysis, the experimental data were analyzed by SPSS 19.0 statistical software, and all data were expressed as Means±SEM.

[1] = test system: reserpine depression model mice; assay: forced swimming test in mice (reserpine depression model); format: in vivo, Kunming mice; details: after Res 6 mg/kg i.p., CLI 50, Pro 25, A1P1 24 and 25, compound 5 56 mg/kg i.p.; for Forced swimming immobility time: 5 min test, Means±SEM, Res + DMSO 169.82 ± 11.22, DMSO 106.72 ± 16.49
Procedure: Experimental Drug, Animal, Grouping and Administration are Same as Sugar Water Preference Experiment Method.
Preparation of depression animal models, acute intraperitoneal injection of 6 mg/kg Res can cause a continuous decrease in monoamine neurotransmitters in the brain for 1 week, and depression-like behaviors last for 72 hours, it is often utilized for the preparation of depression models (Huang et al., 2004).
Forced swimming experiment process, the forced swimming experiment is an experiment in which animals are placed in an unavoidable stressful environment to detect the despair state of animal behavior (Porsolt et al., 1978). Male Kunming mice were selected and randomly divided into groups. Conduct in a quiet and enclosed behavioral observation room, with red lights for indoor lighting (25 lux). The experiment is divided into two stages, the first stage: adaptation experiment, 1 day before the test, 9:00-12:00 h, put the animals into the forced swimming test equipment (plexiglass drum: diameter 20 cm, height 25 cm, water depth 12 cm, water temperature 21-25° C., the upper side CCD camera is connected to the computer to record) after 15 minutes of adaptation, take it out, dry the hair with a towel and put it back into the cage. The second stage: testing experiment, animals in each group were put into the forced swimming bucket for 5 minutes at the same time period, and the behavioral activities during the testing period were tracked and recorded by digital cameras and then analyzed. Immobility time: The animal floats on the water surface, with no movement of the limbs or slight movement of the hind limbs to keep the head above the water surface. Evaluate depression like behavior by detecting the despair state of animals based on their immobility time.
as §1

righting reflex in mice = assay: mouse righting reflex test (sedative and hypnotic effects); format: in vivo, Kunming mice; details: intraperitoneal, Pro 25 mg/kg, n = 7
Procedure: Experimental animals, SPF Kunming mice, male, 20-30 g, Laboratory Animal Center of Lanzhou University (certificate number: SCXK (Gan) 2018-0002), reared in separate cages, temperature, 22±1° C., humidity, 50%, automatic in the light-controlled 12 h/12 h light-dark cycle (light-on time 8:00 h, light-off time 20:00 h, light intensity ≈100 lux) environment, free food and activities, adapted to the experimental environment for 5 days.
as §1

[2] = test system: hot plate pain threshold in mice; assay: hot plate method, compound 1, intragastric administration; format: in vivo
Procedure: All the mice participating in the experiment were subjected to hot plate pain threshold detection before the experiment, and qualified mice with pain threshold of 10-40 s were screened.
Accurately weigh an appropriate amount of compound 1, dissolve it in distilled water and prepare a mother liquor of 100 mg/ml, then dilute to 1.25 mg/ml (25 mg/kg), 2.5 mg/ml (50 mg/kg) with double distilled water respectively; accurately weigh an appropriate amount of the positive control drug gabapentin, dissolve in distilled water and prepare a 100 mg/ml mother solution, and then dilute to 10 mg/ml (200 mg/kg) with double distilled water. All medicines are prepared and utilized as needed.
40 only qualified mice were divided into 4 groups, half male and half female in each group. The first group is the blank group, no administration; the second group is the positive control (gabapentin) 25 mg/kg group; the third group is the test drug 25 mg/kg group; the fourth group is the test drug 50 mg/kg group 4. All were administered by gavage.
The mice were placed in a hot plate apparatus at a temperature of 55±0.5° C., and the pain thresholds of the mice were measured and recorded before administration and 60 min after administration.

[3] = test system: nitroglycerin-induced migraine mouse model; assay: nitroglycerin-induced migraine mouse model (hot plate, head scratching, body weight); format: in vivo, ICR mice
Procedure: 48 ICR mice weigt 18-22 g, half male and half female; purchased from Qinglongshan Animal Breeding Farm, Jiangning District, Nanjing City, certificate: SCXK (Su) 2017-0001; rearing conditions: room temperature 18-20° C., same sex rearing in separate cages, 12 hours of light, regular ventilation, conventional full-price solid feed feeding, bedding changed every two days; 48 mice were randomly divided into 6 groups (blank control group, model group, positive drug group, low-dose group of test drug, medium-dose group of test drug, high-dose group of test drug), 8 animals (4♀4) in each group, marked No. 1-8 with picric acid respectively.
Solvent: 0.5% CMC-Na aqueous solution; positive drug: flunarizine hydrochloride (sibelin) capsules (specification 5 mg), take the contents in a mortar, add 100 ml of 0.5% CMC-Na solution while grinding, placed in EP tubes for standby; Test drug (compound 5): dissolve into 5, 10, 20 mg/ml solutions with distilled water respectively, and placed in EP tubes for standby; Modeling drug (nitroglycerin): take 2 nitroglycerin tablets (specification 5 mg), crushed into powder, placed in EP tubes, added 500 μl of propylene glycol with a pipette and shaken well, standing still for 5 minutes, added 9.5 ml of normal saline, shaken well and standing still overnight, take the supernatant (containing nitroglycerin) 1 mg/ml) for use.
Except for the first group (blank control group), animals in other groups were subcutaneously injected with 10 mg/kg (0.2 ml/20 g) of nitroglycerin back-up solution 1 h after each administration (modeling once every other day on the 1st, 3rd, and 5th days).
The first group was the blank control group, which was given 0.5% CMC-Na 0.2 ml/20 g by gavage; the second group was the model group, which was given 0.5% CMC-Na by gavage; the third group was the positive drug group, which was given by gavage Flunarizine hydrochloride (sibilin) 1 mg/kg; the fourth group was the low-dose group of test drug, which was given 100 mg/kg of compound 5 by gavage; the fifth group was the medium-dose group of test drug, which was given 200 mg/kg of compound 5 by gavage; the sixth group was the high-dose group of test drug, which was given 400 mg/kg of compound 5 by gavage. Dosing every other day on days 1, 3, and 5.
In behavioral studies, mice scratching their heads for more than 5 times or scratching their faces with forelimbs for more than 5 times were identified as migraine-related behaviors caused by modeling, with a record of scratching their heads once; in the hot plate method, mice lifted their hind limbs and licked their hind feet as the observation indicator, record the time immediately.

[4] = test system: lipopolysaccharide-induced depression mouse model; assay: lipopolysaccharide-induced depression mouse model (open field, forced swimming test, body weight); format: in vivo, ICR mice
Procedure: Positive drug: fluoxetine hydrochloride capsule (specification 20 mg), take the content in a mortar, add 40 ml of 0.5% CMC-Na solution while grinding, to a suspended state, set EP tube for use; test drug (compound 5): dissolve into 5, 10, and 20 mg/ml solutions in distilled water, respectively, and put them in EP tubes for later use; modeling drug (LPS): take a frozen lipopolysaccharide PBS solution (1.2 mg: 1.2 ml), and after thawing Use a pipette to take 1 ml into the EP tube, replace with a new pipette tip and pipette 9 ml of normal saline into the EP tube, shake well for use.
Except for the first group (blank control group), other groups of animals were intraperitoneally injected with LPS 2 h before the last administration on the 7th day to the mice in the model group, the positive drug group, and the low, middle and high dose groups of the test drug.
The first group was the blank control group, which was given 0.5% CMC-Na 0.2 ml/20 g by gavage; the second group was the model group, which was given 0.5% CMC-Na by gavage; the third group was the positive drug group, which was given by gavage Flunarizine hydrochloride (sibilin) 1 mg/kg; the fourth group was the low-dose group of the test drug, which was given 100 mg/kg of compound 5 by gavage; the fifth group was the medium-dose group of the test drug, which was given 200 mg/kg by gavage. kg of compound 5; the sixth group was the test drug high-dose group, and 400 mg/kg of compound 5 was administered by gavage. The drug was administered for one week, and the second to sixth groups were intraperitoneally injected with 1 mg/kg (0.2 ml/20 g) of LPS on the seventh day to establish a model.
On the 7th day, before the last administration and modeling, the effect of the drug on the spontaneous activity of the mice should be investigated, and it is excluded that the drug increases the spontaneous activity of the mice and interferes with the immobility time in the forced swimming experiment. The total migration distance of each mouse in the open field (50×50×50 cm) within 5 min was calculated using the open field experimental instrument and related computer software. Before the data collection, each mouse was given 5 min to familiarize with the open field environment, after each mouse was tested, its excrement was removed and the odor was eliminated with an alcohol spray bottle.
Because the air temperature is low, it is appropriate to control the water temperature by adding hot water to the cylinder.
In the spontaneous activity, the behavioral index selects the total migration distance of mice in the open field within 5 minutes,
by tracking the movement trajectory of mice through monitoring devices, and using computer software, the total distance of movement can be directly obtained; in the FST experiment, the mice were placed in a into a transparent cylinder filled with warm water (about 25° C.) for 6 minutes, the mice will experience struggling, swimming and floating behaviors, the time when the mice stop struggling to float on the water surface is identified as a state of despair caused by depression, by using monitoring equipment and computer software to statistically analyze the state of mice after 4 minutes, the total “Immobility time” can be directly obtained.

[5] = compound 5 56 mg/kg, A1P1 24 and 25 mg/kg, Dia 5 mg/kg

Structure (SMILES): CN(C)CCCN1c2ccccc2CCc2ccc(Cl)cc21 [CLI, clomipramine, reference compound]
- change of preference for sugar water compared with the Res+DMSO group (reserpine-treated mice): significantly increased
- Sugar water preference (sugar water drinking amount/total drinking amount) (reserpine-treated mice): 0.812 ± 0.025
- change of forced swimming immobility time compared with the Res+DMSO group [1]: significantly shortened
- Forced swimming immobility time [1]: 80.66 ± 23.68 s

Structure (SMILES): CN1C(=O)CN=C(c2ccccc2)c2cc(Cl)ccc21 [Dia, Diazepam, reference compound]
- Disappearance time (latency of disappearance of the righting reflex) (righting reflex in mice; [5]): did not disappear
- Observation of activity and other phenomena (righting reflex in mice; [5]): significantly reduced

Structure (SMILES): NCC1(CC(=O)O)CCCCC1 [Gabapentin, gabapentin, reference compound]
- Pain response time Before administration ([2]; 25 mg/kg gavage group, baseline, n 10, X ± SD): 16.6 ± 5.2 s
- Pain response time After administration ([2]; 25 mg/kg gavage, 60 min after administration, X ± SD): 33.5 ± 15.0 s
- Pain response time extension rate ([2]; 25 mg/kg gavage, 60 min after administration, blank group 3.9 ± 6.6): 113.4 ± 99.1 %

Structure (SMILES): CC(C)c1cccc(C(C)C)c1O [Pro, Propofol, reference compound]
- change of preference for sugar water compared with the Res+DMSO group (reserpine-treated mice): rose significantly
- Sugar water preference (sugar water drinking amount/total drinking amount) (reserpine-treated mice): 0.789 ± 0.043
- Duration (disappearance to recovery of the righting reflex) (righting reflex in mice): 150.97 s
- Observation of activity and other phenomena (righting reflex in mice; [5]): significantly reduced
- change of forced swimming immobility time compared with the Res+DMSO group [1]: slightly shortened
- Forced swimming immobility time [1]: 145.01 ± 21.21 s

Structure (SMILES): Fc1ccc(C(c2ccc(F)cc2)N2CCN(C/C=C/c3ccccc3)CC2)cc1 [flunarizine hydrochloride, reference compound]
- weight gain of mice ([3]; reference blank group, compound 5 100, 200, 400 mg/kg, flunarizine hydrochloride 1 mg/kg, gavage, p>0.05): no significant difference
- hind feet licking time (hot plate) ([3]; reference model group, flunarizine hydrochloride 1 mg/kg gavage, 45 min after modeling, day 5, p<0.05): significant difference
- total number of head scratching times ([3]; reference model group, flunarizine hydrochloride 1 mg/kg gavage, day 5): extremely significant (p<0.01)

Structure (SMILES): CNCCC(Oc1ccc(C(F)(F)F)cc1)c1ccccc1 (stereo not shown) [fluoxetine hydrochloride, reference compound]
- effect on body weight of mice ([4]; compound 5 100, 200, 400 mg/kg and positive drug, gavage for one week): no significant effect
- alleviation of depressive behavior caused by LPS ([4]; compound 5 100, 200, 400 mg/kg and positive drug, gavage for one week, no statistical difference found): certain alleviation effect
- spontaneous activity: total migration distance in open field within 5 minutes ([4]; reference blank group, day 7 before last administration, all dose groups, p>0.05): no significant effect
- FST immobility time ([4]; reference model group, compound 5 100, 200, 400 mg/kg and positive drug, gavage for one week, 4 h after LPS): not significantly different (p>0.05)
